# From PubChem BioAssay AID651884 (Southern Research Specialized Biocontainment Screening …, 2012)
# Test system: VEEV TC-83 infected cells, viral CPE inhibition
# Experiment: Cell based counter screen, viral CPE inhibition, VEEV strain KU V3526 (AID 651884)
row,Compound,IC50
1,COc1ccc(NC(=O)c2cc([N+](=O)[O-])ccc2N=C2CN(C)CCN2C)cc1,17 nM
2,CN1CCN(C)C(=Nc2ccc([N+](=O)[O-])cc2C(=O)Nc2ccccc2)C1,19.4 nM
3,CCN1CCN(Cc2nc3ccc([N+](=O)[O-])cc3c(=O)n2-c2ccccc2F)CC1,325 nM
4,CCN1CCN(C)CC1=Nc1ccc([N+](=O)[O-])cc1C(=O)Nc1ccccc1,20 nM
